PubChem BioAssay AID743394 (Broad Institute, 2014)
Activity calls are given as the source filed them.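 The calls were made as follows: active = 40% activation versus positive control reached by fitted dose-response curve at or below highest valid tested dose; inconclusive = poor fit quality, or flat fit with activation between 30% and 70%; inactive = the rest.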

Assay: Xi-linked GFP reactivating small molecules – imaging, 68-5-11 mouse fibroblasts, cherry-pick, dose response (AID 743394);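 also: sensitizer 5-aza-dC present in the wells at 0.5 mM final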
Conditions: 68-5-11 mouse fibroblast XiGFP reporter, % GFP-positive imaging, 3 d; at 19.5 µM (top of the series)

SMILES | activation
COCCCn1c(N)c(C(=O)Nc2ccccc2)c2nc3ccccc3nc21 | -0.127% (inactive)
Cc1cc(/C=C2/C(=O)NC(=O)N(Cc3ccco3)C2=O)c(C)n1-c1ccccc1O | -0.049% (inactive)

Same assay, conditions: 68-5-11 mouse fibroblast XiGFP reporter, % GFP-positive imaging, 3 d; at 19.5 µM (top of the series); cells co-treated with 5-aza-dC sensitizer; scaled: neutral wells 0, ellipticine wells 100

SMILES | activation
COc1ccc(NC(=O)N(C)[C@H]2C[C@H]3c4[nH]c5ccc(-c6ccc(OC)cc6)cc5c4CCN3C(=O)[C@H]2[C@H](C)O)cc1 | 0.523% (inactive)
CC(C)CC#Cc1ccc([C@@H]2[C@@H](CO)N3C(=O)CN(C(=O)c4cccc(F)c4)C[C@H]23)cc1 | 0.027% (inactive)
Cc1ccsc1C1Nc2ccccc2-c2nc3ccccc3n21 (stereo unspecified) | -0.047% (inactive)
COc1ccc(Cl)cc1C(=O)Nc1ccccc1N1CCCCC1 | 1.48% (inactive)
CC(C)c1ccc(CN2CCN(C(=O)CSc3nnnn3C3CC3)CC2)cc1 | 0.2% (inactive)
C[C@@H]1CN([C@@H](C)CO)C(=O)c2cc(NS(=O)(=O)c3ccccc3)ccc2O[C@@H](C)CCCCO[C@@H]1CN(C)Cc1ccc2c(c1)OCO2 | 0% (inactive)
CCOC(=O)N1CCN(C(=O)Cn2ccc3c(OC)cccc3c2=O)CC1 | 0.07% (inactive)
COC1=CC(=O)c2nc(Cl)ccc2C1=O | 5.06% (inactive)
CC(=O)Nc1ccc(N2Cc3ccccc3C2)cc1 | -0.053% (inactive)
COC(C(=O)NCc1ccc(C)cc1)c1ccccc1 (stereo unspecified) | 0.114% (inactive)
CCc1ccc(CCC(=O)Nc2ncc(Cc3ccccc3Cl)s2)o1 | 0.223% (inactive)
CCc1ccc(CN(C)C(=O)c2cc(S(=O)(=O)N3CCOCC3)ccc2N2CCCC2)cc1 | -0.007% (inactive)
Cc1ccc(OCCN2CCN(CC(O)Cn3c4ccccc4c4ccccc43)CC2)cc1 (stereo unspecified) | 5.68% (inactive)
C[C@@H]1ON(C)[C@H]2C[C@H]3c4cc(-c5cccc(F)c5)ccc4CCN3C(=O)[C@@H]12 | 0.187% (inactive)
Cc1cc(NC(=O)c2c(-c3c(Cl)cccc3Cl)noc2C)n(C)n1 | -0.127% (inactive)
COc1ccc(S(=O)(=O)N(C)C[C@H]2Oc3ccc(NS(=O)(=O)c4ccc(F)cc4)cc3CC(=O)N([C@@H](C)CO)C[C@@H]2C)cc1 | 0.034% (inactive)
COc1ccc(C(=O)Nc2c(F)c(F)c(F)c(F)c2F)cc1OC | -0.047% (inactive)
COc1ccc(C)c(-n2c(=O)n(Cc3ccccc3)c(=O)c3[nH]cnc32)c1 | -0.006% (inactive)
Cc1cc(NC(=O)c2ccccc2)n(-c2nc3ccccc3[nH]2)n1 | -0.016% (inactive)
COc1ccc2c3c([nH]c2c1)[C@H](CO)N(C(=O)c1cccnc1)CC31CCN(Cc2ccccc2)CC1 | 0.094% (inactive)
CN1CCN(S(=O)(=O)c2ccc(C#N)cc2)C(c2ccccc2)C1 (stereo unspecified) | 0.227% (inactive)
Cc1ccc(S(=O)(=O)Nc2ccc3c(c2)C(=O)N([C@H](C)CO)C[C@@H](C)[C@@H](CN(C)Cc2ccc(Cl)c(Cl)c2)OCCCC[C@H](C)O3)cc1 | -0.031% (inactive)
O=C(COC(=O)COc1cccc(C(F)(F)F)c1)NC1CCS(=O)(=O)C1 (stereo unspecified) | -0.034% (inactive)
O=C(N/N=C/c1ccc2cccnc2c1)c1nc2ccccc2c(=O)[nH]1 | 0.014% (inactive)
CCCN(C(=O)c1ccc(-n2cncn2)c([N+](=O)[O-])c1)C1CCS(=O)(=O)C1 (stereo unspecified) | -0.007% (inactive)
CCCCOc1nc2ccccc2nc1NS(=O)(=O)c1ccc(F)cc1 | 0.851% (inactive)

SMILES | activation
COc1ccc(-c2nnc(NC(=O)c3ccc(F)cc3)o2)cc1 | -0.035% (inactive)
CCOC(=O)c1cnc(-c2ccc(C(F)(F)F)cn2)[nH]c1=O | -0.017% (inactive)
COc1ccc(CN(C)C[C@H]2OCCCC[C@H](C)Oc3ccc(NC(=O)Nc4ccc(F)cc4)cc3C(=O)N([C@H](C)CO)C[C@H]2C)cc1 | 0.981% (inactive)
C[C@@H]1CN([C@@H](C)CO)C(=O)c2cc(NS(=O)(=O)c3cn(C)cn3)ccc2O[C@@H](C)CCCCO[C@H]1CN(C)C(=O)c1ccccc1 | 0.016% (inactive)
CCN(CC)CCCNC1=C(Cl)C(=O)c2ccccc2C1=O | -0.032% (inactive)
CCCn1c(SCC(=O)NCc2ccc(C)cc2)n[nH]c1=O | -0.121% (inactive)
COc1ccccc1OCCOc1ccc(/C=C2\C(=N)N3N=C(S(C)(=O)=O)SC3=NC2=O)cc1 | 0.042% (inactive)
Cc1ccc(S(=O)(=O)Nc2ccc3c(c2)C(=O)N([C@@H](C)CO)C[C@@H](C)[C@@H](CN(C)Cc2ccc(C(=O)Nc4ccccc4N)cc2)O3)cc1 | 1.51% (inactive)
Cn1c(=O)c2[nH]c(-c3ccc(S(=O)(=O)O)cc3)nc2n(C)c1=O | 0.001% (inactive)
S=C(NCc1ccco1)Nc1cccc(Cl)c1Cl | -0.047% (inactive)
O=C1c2ccccc2C(=O)C1c1ccccc1 | -0.024% (inactive)
COc1ccc2c3c([nH]c2c1)[C@@H](CO)N(Cc1ccccc1F)CC31CN(C(=O)C2CCOCC2)C1 | 0.046% (inactive)
Cc1ccc(NC(=O)COc2ccc(-c3nnco3)cc2)cc1S(=O)(=O)N1CCOCC1 | -0.044% (inactive)
O=C(COC(=O)/C=C/c1cccc(C(F)(F)F)c1)NC(=O)NCc1ccco1 | -0.07% (inactive)
COCCN(C(=O)c1ccc2c(c1)C(=O)N(c1ccccc1Cl)C2=O)c1c(N)n(CC(C)C)c(=O)[nH]c1=O | 0.738% (inactive)
COc1cccc(CNC(=O)c2cc(S(=O)(=O)N3CCOCC3)cn2C)c1 | 0.576% (inactive)
Cc1ccc(-c2[nH]c(=S)[nH]c(=O)c2C#N)cc1 | -0.003% (inactive)
NC(=NC(=O)c1cccc(C(F)(F)F)c1)c1ccc(C(F)(F)F)cn1 | 0.408% (inactive)
Cc1c(/C=N\NC(=O)c2cc3ccccc3o2)c2ccccc2n1C | -0.044% (inactive)
Cc1cccc(C(=O)NCc2ccc(S(N)(=O)=O)cc2)c1[N+](=O)[O-] | 0.077% (inactive)
CC1C=NC(S(=O)(=O)N2CC[C@@H]3[C@@H](CO)N(C)c4ccc(-c5ccccc5)cc4[C@@H]32)=N1 (stereo partly specified) | 0.053% (inactive)
CC(=O)Nc1sc(N/N=C/c2ccc(N(C)C)cc2)nc1-c1ccc(C)cc1 | 0.052% (inactive)
CC(Sc1nnc(-c2ccncc2)n1C)C(=O)Nc1ccc(N2CCOCC2)cc1 (stereo unspecified) | -0.047% (inactive)
Brc1ccc(-c2cn3ccccc3n2)cc1 | -0.039% (inactive)
Cc1ccc(S(=O)(=O)Nc2cccc3c2O[C@H](CN(C)C(=O)Nc2cccc4ccccc24)[C@H](C)CN([C@H](C)CO)C3=O)cc1 | 0.028% (inactive)
CCCOc1ccc(C(=O)Nc2ccc(CN3CCOCC3)cc2)cc1 | -0.053% (inactive)

SMILES | activation
COc1ccc2c3c(n(C)c2c1)[C@@H](CO)N(Cc1ccccc1OC)CC31CCN(C)CC1 | 0.213% (inactive)
O=c1c2cc(-c3ccccc3)sc2nc2n1N=C(c1ccccc1)CS2 | 1.54% (inactive)
CCC(C)c1nc2ccsc2c(N2CCOC2=O)c1-c1ccccc1 (stereo unspecified) | -0.032% (inactive)
COc1ccc(N=Nc2ccc(O)c(P(=O)(c3ccccc3)c3ccccc3)c2)cc1 | 0.015% (inactive)
O=C(c1ccc(Br)cc1)c1cc([N+](=O)[O-])ccc1N1CCOCC1 | 4.21% (inactive)
Cc1cc(N)ncc1[N+](=O)[O-] | 0.508% (inactive)
Cc1cccc(OCC(=O)N(C)c2c(N)n(Cc3ccccc3)c(=O)[nH]c2=O)c1C | 0.012% (inactive)
COc1ccc(/C=C2\CCc3ccccc3C2=O)cc1CN1CCOCC1 | 0.231% (inactive)
CCOC(=O)/C(C#N)=C/C=C1/C=CC=CN1C | 0.071% (inactive)
O=C(O)c1ccccc1NS(=O)(=O)c1ccc(N/N=C/c2cccc(O)c2O)c([N+](=O)[O-])c1 | -0.035% (inactive)
COc1ccc(CCNC(=O)c2ccc([N+](=O)[O-])cc2)cc1 | -0.024% (inactive)
COc1ccc2c3c(n(C)c2c1)[C@@H](CO)N(C)CC31CN(C(=O)NC(C)C)C1 | -0.012% (inactive)
COc1ccc(CN(C)C[C@H]2OCCCC[C@@H](C)Oc3ccc(NC(=O)Nc4ccc(F)cc4)cc3C(=O)N([C@@H](C)CO)C[C@H]2C)cc1 | 3.19% (inactive)
COc1ccc(C2C(=O)c3ccccc3C2=Nc2ccc(Br)cc2)cc1 (stereo unspecified) | -0.066% (inactive)
CCOc1ccccc1N1C(=O)CC(Sc2nccc(C)n2)C1=O (stereo unspecified) | -0.095% (inactive)
CCN(CC)S(=O)(=O)c1ccc(Cl)c(NC(=O)COC(=O)c2c(C)noc2C)c1 | 0.03% (inactive)
COc1cccc(NC(=O)N(C)C[C@@H]2Oc3cc(Br)ccc3S(=O)(=O)N([C@@H](C)CO)C[C@H]2C)c1 | -0.016% (inactive)
O=C(Nc1c(Cl)cccc1Cl)Oc1cccc2cccnc12 | -0.037% (inactive)
CCC(=O)N1CC(=O)N2[C@@H](CO)[C@@H](c3ccc(-c4ccccc4F)cc3)[C@@H]2C1 | 0% (inactive)
COc1ccc(N(CC(=O)Nc2nccs2)S(=O)(=O)c2c(C)[nH]c(=O)[nH]c2=O)cc1 | 0.033% (inactive)
Cc1ccc(N(C)C(=O)C2CCN(S(=O)(=O)c3ccc4c(c3)oc(=O)n4C)CC2)cc1 | 0.016% (inactive)
O=C(Nc1cccc(S(=O)(=O)NC2=NCCC2)c1)C1CC(=O)N(c2ccc3c(c2)OCCO3)C1 (stereo unspecified) | 0.339% (inactive)
CC(C)N1CCc2c(sc(NC(=O)c3cc4cc([N+](=O)[O-])ccc4s3)c2C(N)=O)C1 | 7.43% (inactive)
CCN(CC)c1ccc(/C=C/C(=O)C2C(=O)C=C(C)OC2=O)cc1 (stereo unspecified) | 3.58% (inactive)
Cc1noc(C)c1S(=O)(=O)Nc1ccc2c(c1)C(=O)N([C@H](C)CO)C[C@H](C)[C@H](CN(C)C(=O)Nc1ccc(F)cc1)OCCCC[C@H](C)O2 | 0.022% (inactive)
O=C(NC1=C(NC2CCS(=O)(=O)C2)C(=O)c2ccccc2C1=O)c1ccccc1 (stereo unspecified) | -0.047% (inactive)

Same assay, conditions: 68-5-11 mouse fibroblast XiGFP reporter, % GFP-positive imaging, 3 d; at 21 µM (top of the series); cells co-treated with 5-aza-dC sensitizer; scaled: neutral wells 0, ellipticine wells 100

SMILES | activation
Cc1noc(C)c1NC(=O)N(C)C[C@@H]1Oc2ccc(NC(=O)C3CC3)cc2CC(=O)N([C@@H](C)CO)C[C@@H]1C | -0.023% (inactive)
